Article PMC9090415, “Discovery of small molecule inhibitors of Plasmodium falciparum apicoplast DNA polymerase” (Journal of Enzyme Inhibition and Medicinal Chemistry, 2022)

Biological target: P. falciparum apicoplast DNA polymerase (Pf-apPOL) (Plasmodium falciparum, UniProt Q8ILY1)
Test: Fluorescence-based high-throughput DNA polymerase assay (molecular beacon), primary screen and dose-response
Format: biochemical
Conditions: for DNA Pol: 90 min, 10 µM; for % inhibition apPOL 180' 2.5 / % inhibition apPOL 180' 5 / % inhibition apPOL 180' 10 / % inhibition apPOL 180' 20 / % inhibition apPOL 180' 40 / % inhibition apPOL 180' 80: read at 180'
Procedure, shortened: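 Single-point screening used 10 µM compound with 20 nM polymerase, 20 nM hairpin substrate and 6 µM dNTPs for 90 min at 25 °C. Confirmatory titrations (2.5–80 µM) followed fluorescence at three times, and IC50 was derived from a fit including a cooperativity term n.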

Chain of P. falciparum apicoplast DNA polymerase (Pf-apPOL) (Q8ILY1 entry or part of it): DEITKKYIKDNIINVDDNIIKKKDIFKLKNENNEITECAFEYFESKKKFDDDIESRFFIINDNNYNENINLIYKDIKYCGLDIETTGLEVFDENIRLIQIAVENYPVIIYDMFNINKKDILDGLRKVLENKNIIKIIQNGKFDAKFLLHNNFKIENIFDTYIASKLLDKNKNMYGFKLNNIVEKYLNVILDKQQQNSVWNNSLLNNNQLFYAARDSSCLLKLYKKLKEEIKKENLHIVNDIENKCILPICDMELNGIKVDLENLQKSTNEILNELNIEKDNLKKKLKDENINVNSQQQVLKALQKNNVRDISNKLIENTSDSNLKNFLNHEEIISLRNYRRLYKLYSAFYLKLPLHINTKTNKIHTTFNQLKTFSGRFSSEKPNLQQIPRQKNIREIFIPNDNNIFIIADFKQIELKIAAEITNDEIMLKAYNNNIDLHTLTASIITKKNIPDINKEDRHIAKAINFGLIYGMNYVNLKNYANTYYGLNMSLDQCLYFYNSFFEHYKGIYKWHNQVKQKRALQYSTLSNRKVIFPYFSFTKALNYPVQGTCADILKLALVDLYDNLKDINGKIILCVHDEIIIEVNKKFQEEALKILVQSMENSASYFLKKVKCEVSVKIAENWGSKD

CC(=O)OCC1=C(C(=O)[O-])N2C(=O)[C@@H](NC(=O)Cc3cccs3)[C@H]2SC1.[Na+] [Molecule 73, CC(=O)OCC1=C(C(=O)[O-])N2[C@H](SC1)[C@@H](C2=O)NC(=O)Cc1cccs1.[Na+]]
DNA Pol (186 hits, DNA Pol (screen value), unit not given): 62 | DNA Pol ('DNA Pol' (screen value), unit not given): 62 | % inhibition Apo pol 10' 2.5 (DRC-1, read at 10', concentration 2.5): 15.9246% | % inhibition Apo pol 10' 5 (DRC-1, read at 10', concentration 5): 24.2196% | % inhibition Apo pol 10' 10 (DRC-1, read at 10', concentration 10): 38.6298% | % inhibition Apo pol 10' 20 (DRC-1, read at 10', concentration 20): 52.9189% | % inhibition Apo pol 10' 40 (DRC-1, read at 10', concentration 40): 72.9017% | % inhibition Apo pol 10' 80 (DRC-1, read at 10', concentration 80): 83.4409% | % inhibition Apol 90' 2.5 (DRC-1, read at 90', concentration 2.5): -0.64% | % inhibition Apol 90' 5 (DRC-1, read at 90', concentration 5): -0.282% | % inhibition Apol 90' 10 (DRC-1, read at 90', concentration 10): 6.863% | % inhibition Apol 90' 20 (DRC-1, read at 90', concentration 20): 14.2955% | % inhibition Apol 90' 40 (DRC-1, read at 90', concentration 40): 36.8577% | % inhibition Apol 90' 80 (DRC-1, read at 90', concentration 80): 67.9349% | % inhibition apPOL 180' 2.5 (DRC-1, concentration 2.5): -8.644% | % inhibition apPOL 180' 5 (DRC-1, concentration 5): -9.547% | % inhibition apPOL 180' 10 (DRC-1, concentration 10): -4.869% | % inhibition apPOL 180' 20 (DRC-1, concentration 20): -0.1262% | % inhibition apPOL 180' 40 (DRC-1, concentration 40): 18.2499% | % inhibition apPOL 180' 80 (DRC-1, concentration 80): 56.6871% | % inhibition Apol 40' (DRC-2, concentration 2.5): 1.25% | % inhibition Apol 40' (DRC-2, concentration 20): 29% | % inhibition ApPOL 90' (DRC-2, concentration 2.5): 1.25% | % inhibition apPOL 180' (DRC-2, concentration 40): 29% | % inhibition Apo pol 5' 2.5 (DRC-2, read at 5', concentration 2.5): 3% | % inhibition Apo pol 5' 5 (DRC-2, read at 5', concentration 5): 6.34% | % inhibition Apo pol 5' 10 (DRC-2, read at 5', concentration 10): 22% | % inhibition Apo pol 5' 20 (DRC-2, read at 5', concentration 20): 36% | % inhibition Apo pol 5' 40 (DRC-2, read at 5', concentration 40): 43% | % inhibition Apo pol 5' 80 (DRC-2, read at 5', concentration 80): 50% | % inhibition Apol 40' 2.5 (DRC-2, read at 40', concentration 2.5): 1.25% | % inhibition Apol 40' 5 (DRC-2, read at 40', concentration 5): 2% | % inhibition Apol 40' 10 (DRC-2, read at 40', concentration 10): 13% | % inhibition Apol 40' 20 (DRC-2, read at 40', concentration 20): 29% | % inhibition Apol 40' 40 (DRC-2, read at 40', concentration 40): 45% | % inhibition Apol 40' 80 (DRC-2, read at 40', concentration 80): 62% | % inhibition ApPOL 90' 2.5 (DRC-2, read at 90', concentration 2.5): 1.25% | % inhibition ApPOL 90' 5 (DRC-2, read at 90', concentration 5): -1.85% | % inhibition ApPOL 90' 10 (DRC-2, read at 90', concentration 10): 5% | % inhibition ApPOL 90' 20 (DRC-2, read at 90', concentration 20): 20% | % inhibition ApPOL 90' 40 (DRC-2, read at 90', concentration 40): 39% | % inhibition ApPOL 90' 80 (DRC-2, read at 90', concentration 80): 63% | % inhibition apPOL 180' 2.5 (DRC-2, concentration 2.5): -0.311% | % inhibition apPOL 180' 5 (DRC-2, concentration 5): -7% | % inhibition apPOL 180' 10 (DRC-2, concentration 10): -2.83% | % inhibition apPOL 180' 20 (DRC-2, concentration 20): 10% | % inhibition apPOL 180' 40 (DRC-2, concentration 40): 29% | % inhibition apPOL 180' 80 (DRC-2, concentration 80): 60%

CC(NC(=O)Cc1cc(=O)[nH]c(SCc2cccc(Cl)c2)n1)c1ccccc1 (centres unmarked) [Molecule 67, O=C(NC(c1ccccc1)C)Cc1nc(SCc2cccc(c2)Cl)[nH]c(=O)c1]
DNA Pol ('DNA Pol' of the 186 hits list (primary screen value)): 46 | DNA Pol (DNA Pol (primary screen value)): 46 | % inhibition Apo pol 10' (DRC-1, concentration 2.5): -1.6671% | % inhibition Apo pol 10' (DRC-1, concentration 5): 0% | % inhibition Apo pol 10' (DRC-1, concentration 10): 11.4347% | % inhibition Apo pol 10' (DRC-1, concentration 20): 48.0532% | % inhibition Apo pol 10' (DRC-1, concentration 40): 64.8608% | % inhibition Apo pol 10' (DRC-1, concentration 80): 85.5547% | % inhibition Apol 90' (DRC-1, concentration 2.5): -5.257% | % inhibition Apol 90' (DRC-1, concentration 5): -6.461% | % inhibition Apol 90' (DRC-1, concentration 10): 1.923% | % inhibition Apol 90' (DRC-1, concentration 20): 26.5805% | % inhibition Apol 90' (DRC-1, concentration 40): 38.5858% | % inhibition Apol 90' (DRC-1, concentration 80): 80.0323% | % inhibition apPOL 180' (DRC-1, concentration 2.5): -10.8024% | % inhibition apPOL 180' (DRC-1, concentration 5): -10.8936% | % inhibition apPOL 180' (DRC-1, concentration 10): -3.791% | % inhibition apPOL 180' (DRC-1, concentration 20): 10.3203% | % inhibition apPOL 180' (DRC-1, concentration 40): 18.891% | % inhibition apPOL 180' (DRC-1, concentration 80): 71.4283% | % inhibition Apo pol 5' (DRC-2, concentration 2.5): 0.743% | % inhibition Apo pol 5' (DRC-2, concentration 5): -0.394% | % inhibition Apo pol 5' (DRC-2, concentration 10): 30% | % inhibition Apo pol 5' (DRC-2, concentration 20): 33% | % inhibition Apo pol 5' (DRC-2, concentration 40): 27% | % inhibition Apo pol 5' (DRC-2, concentration 80): 20% | % inhibition Apol 40' (DRC-2, concentration 2.5): 0.551% | % inhibition Apol 40' (DRC-2, concentration 5): 0.92% | % inhibition Apol 40' (DRC-2, concentration 10): 36% | % inhibition Apol 40' (DRC-2, concentration 20): 49% | % inhibition Apol 40' (DRC-2, concentration 40): 52% | % inhibition Apol 40' (DRC-2, concentration 80): 55% | % inhibition ApPOL 90' (DRC-2, concentration 2.5): 0.178% | % inhibition ApPOL 90' (DRC-2, concentration 5): -1% | % inhibition ApPOL 90' (DRC-2, concentration 10): 32% | % inhibition ApPOL 90' (DRC-2, concentration 20): 48% | % inhibition ApPOL 90' (DRC-2, concentration 40): 54% | % inhibition ApPOL 90' (DRC-2, concentration 80): 64% | % inhibition apPOL 180' (DRC-2, concentration 2.5): -3% | % inhibition apPOL 180' (DRC-2, concentration 5): -6% | % inhibition apPOL 180' (DRC-2, concentration 10): 20% | % inhibition apPOL 180' (DRC-2, concentration 20): 37% | % inhibition apPOL 180' (DRC-2, concentration 40): 49% | % inhibition apPOL 180' (DRC-2, concentration 80): 70%
